The term Ki denotes the dissociation constant of the complex between target and ligand, obtained from inhibition or displacement. Higher therefore signals a looser hold on the target.

“Also recorded” adds a separate entry of the source. Like-named read-outs stand apart in the source and are kept apart here.

This note sets out measurements from patent US11629141B2, “Proteasome inhibitors and uses thereof” (CORNELL UNIVERSITY, priority 2015, dated 2023).

For experiment [1], the target named is T1, hu i-20S β5i (Homo sapiens, UniProt P28062).
T1 construct: purchased Boston Biochem Inc
The experiment in a line: Kinetic analysis, substrate titration of hu i-20S steady state velocities. The format is biochemical. How it is done:
(§1) FIGS. 1A-1E are graphs showing inhibition modality of PKS21004 against human proteasomes. Washout of c-20S from the preincubated c-20S and […] to recover the β5c activity (FIG. 1A). Substrate titration of hu i-20S (FIG. 1B) and c-20S (FIG. 1D) steady state velocities in the presence of PKS21004 at the concentrations indicated next to each curve. Data as in (FIG. 1B) were plotted double reciprocal in (FIG. 1C), and (FIG. 1D) in (FIG. 1E).
(§2) A washout experiment was used to confirm the reversibility of this class of proteasome inhibitors, as expected from their non-covalent chemistry.

Experiment [2] concerns the target T2, c-20S β5c (Homo sapiens, UniProt P28074).
T2 construct: purchased Boston Biochem Inc
The experiment in a line: Kinetic analysis, substrate titration of c-20S steady state velocities. The format is biochemical. How it is done: as §1, §2

Experiment [3] concerns Plasmodium falciparum. The experiment in a line: Growth of Plasmodium falciparum in red blood cells (SYBR Green, 72 hours). The format is cell-based. The procedure: Continuous in vitro cultures of Plasmodium falciparum: were maintained in human red blood cells (RBC) diluted to a hematocrit of 5% in RPMI 1640 medium with HEPES and Hypoxanthine and completed with 0.5% Albumax II (Invitrogen), 0.25% sodium bicarbonate, and 0.1 mg/ml gentamicin. Parasites were incubated at 37° C. in a gas mixture of 5% oxygen, 5% carbon dioxide, and 90% nitrogen.
Parasite sensitivity to novel compounds were determined using a SYBR Green (Invitrogen S1046) drug assay protocol. P. falciparum of various clinic stains were cultured with compounds at concentrations in a series of dilution in a clear, sterile 96-well plate for 72 hours. Subsequently, 150 μl of the cultures were transferred to a black 96-well plate and placed in the freezer for red blood cell lysis. The plates were thawed and suspended in a Sybr Green Lysis buffer. GraphPad Prism was used to analyze the raw data collected […]. Drug concentrations were converted to logarithms, normalized, and then curve fitted by non-linear regression to obtain EC50 values.
Plasmodium falciparum: parasites were cultured in human red cells. Drug assays were run in 96 well plates at a total volume of 200 μl. Assays were set up at a starting parasitemia (percent of infected red cells) of 0.5%. Test compounds were plated at concentrations of 2778 nM to 0.4 nM. The test plates were grown under standard low oxygen conditions at 37° C. for 72 hours. At that time the plates were prepared for growth determination, first the plates were frozen and thawed to lyse the red blood cells, 150 μl of the lysed thawed culture was transferred to a black 96 well plate, and mixed in a lysis buffer with SYBR green DNA dye. The fluorescence of each well was recorded in a plate reader with excitation wavelength 490 nm and emission wavelength 530 nm and normalized relative to DMSO control. The EC50s were determined using Prism software.

Experiment [4] deals with Pf Gametocytes. The experiment in a line: Gametocyte killing assay (DilC1(5), flow cytometry). The format is cell-based. The following applies: Plasmodium falciparum; NF54 peg4-tdTomato, 72 hour incubation; read-out: EC50 against Pf Gametocytes. The procedure: Asexual replication of NF54 peg4-tdTomato parasites was eliminated by treating with 50 mM GlcNAc and 20 U/mL Heparin for 3 days. NF54 peg4-tdTomato parasites then were maintained using standard culture techniques. Gametocytes were induced synchronously according to Fivelman et al., “Improved Synchronous Production of Plasmodium Falciparum Gametocytes in Vitro,” Mol Biochemo Parasitol. 154(1):119-123 (2007), which is hereby incorporated by reference in its entirety. Asexual replication was eliminated by treating with 50 mM GlcNAc for 3 days. Gametocyte killing assays were setup on days 5 and 10 in triplicate 96-well format at 1% hematocrit and 2% gametocytemia. Compounds were setup in triplicate and serially diluted 3-fold. In addition, 6 solvent controls (DMSO) were distributed evenly across the plate. Following a 72 hour incubation, Stage III-IV (Day 5-7) and Stage IV-V (Day 10-12), (start the incubation in the afternoon on Day 5 and Day 10, take out plate for assay on Day8 and Day13 afternoon) cultures were stained with 16 nM Hoechst 33342 and 50 nM DilC1(5) for 30 min at 37 C. Using a Cytek DxP12 flow cytometer, gametocytemia was determined by gating for DNA+, hemozoin-high cells and gametocyte viability was inferred based on mitochondrial membrane potential-dependent accumulation of DilC1(5) for 2000-3000 gametocytes (Tanaka et al., “Potent Plasmodium Falciparum Gametocytocidal Activity of Diaminonaphthoquinones, Lead Antimalarial Chemotypes Identified in an Antimalarial Compound Screen,” Antimicrob. Agents Chemother. 2015, 59:1389 (2015), which is hereby incorporated by reference in its entirety). Mean DilC1(5) signal was normalized to solvent control and the overall minimum and used to calculate the EC50 (FIG. 3 and Table 4).
(In general: In flow cytometry, cells or beads pass a laser one at a time.)

Experiment [5] has as its system P. berghei. The experiment in a line: Killing of P. berghei sporozoite stage in HepG2 cells. The format is cell-based. The following applies: Plasmodium berghei.
Experiment [6] has as its system Pf20S β5. The experiment in a line: Labeling of Pf20S active subunits by activity probe MV151 in Pf lysates. The format is biochemical, P. falciparum. The note with it: 1 hour with inhibitor, then MV151 (2 μM) 1 hour. The procedure: Pf lysates were incubated with inhibitors at indicated concentrations for 1 hour prior to incubation with MV151 (2 μM) for an additional hour. SDS pages were scanned on a Typhoon fluorescent scanner. […] BTZ was used as a positive control.

For experiment [7], the system named is P. falciparum schizonts. The experiment in a line: Accumulation of poly-ubiquitinated proteins in P. falciparum schizonts. The note with it: 4 hours post treatment. The format is cell-based.
The mark [8] stands for this setting: fit to equation for noncompetitive inhibitors.

Turning to `CC(C)(C)NC(=O)C[C@H](NC(=O)CCc1ccccc1)C(=O)NCCNC(=O)c1cccc(-c2ccccc2)c1` [PKS21004], the results for the Ki in experiment [1] and in experiment [2] were 77 nM and 550 nM, respectively. Further, in experiment [1] (setting [8]), the “α for i-20S (β5i)” value is 0.28 and ≈ 0.28. Moreover, the “modality of inhibition of β5i” value in experiment [1] (with respect to substrate) is given as “noncompetitive inhibitor”. For the same compound, the “α for c-20S” value in experiment [2] (setting [8]) was 0.98 and ≈ 0.57. The “modality of inhibition of β5c” value in experiment [2] (with respect to substrate) is given as “noncompetitive inhibitor”. Further, the EC50 in experiment [3] (D6, Erythrocyte, read-out: EC50s against P. falciparum strain D6) worked out at 4 nM; in experiment [3] (DD2, Erythrocyte, read-out: EC50s against P. falciparum strain Dd2), 4.8 nM; in experiment [3] (Erythrocyte, P.f. 3D7, growth in red blood cells, read-out: EC50 (nM) (P.f.)) it was 4.6 nM; in experiment [3] (Erythrocyte, read-out: EC50s against P. falciparum strain IPC 3663) it was 6 nM; in experiment [3] (Erythrocyte, read-out: EC50s against P. falciparum strain IPC 4884), 5.2 nM; in experiment [3] (Erythrocyte, read-out: EC50s against P. falciparum strain IPC 4912), 5.8 nM. The EC50 in experiment [3] (Erythrocyte, read-out: EC50s against P. falciparum strain IPC 5188) was 1.5 nM; in experiment [3] (Erythrocyte, read-out: EC50s against P. falciparum strain Sb1-a6), 4.8 nM; in experiment [3] (Erythrocyte, read-out: EC50s against P. falciparum strain V1S), 1.7 nM; in experiment [3] (HB3, Erythrocyte, read-out: EC50s against P. falciparum strain HB3) it was 10 nM; in experiment [4] it was 50 nM; in experiment [5] (read-out: EC50 killing of P. berghei, compound & sporozoites incubated with HepG2, media replaced after 14 hours) it was 21 nM. The EC50 is 41 nM in experiment [5] (compound & sporozoites incubated with HepG2, media replaced after 6 hours, read-out: EC50 killing of P. berghei, 6 hours) and 157 nM in experiment [5] (sporozoites pre-treated 30 minutes on ice, added to HepG2, media replaced after 4 hours, read-out: EC50 killing of P. berghei, sporozoites pre-treated (P/T)). For the same compound, the “labeling of Pf20S β5 by MV151” value in experiment [6] is “block labeling; also recorded: inhibited the labeling”. For the same compound, the “accumulation of poly-ubiquitinated proteins” value in experiment [7] is reported as “accumulation of poly-ubiquitinated proteins”.
